Read-outs that look alike come from different tables or passages of the source.
Legend:
[1] = tested on: H3K18Ac in HB-CLS-2 cells; assay: H3K18AC in-cell western (ICW) assay; assay type: cell-based; settings: read-out: CREBBP ICW IC50
Procedure, shortened: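 In-cell western: after methanol fixation, blocking, overnight 4° C anti-H3K18Ac staining, then 800CW secondary plus DRAQ5 for DNA content, integrated intensities were scanned at 800 and 700 nm. Before this, compound exposure lasted 2 hr at 37° C in HB-CLS-2 cells plated 16–24 hours earlier. Values expressed as IC50 (μM).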

CREBBP (1084-1701) = target: T1, CREBBP (1084-1701) (Homo sapiens, UniProt Q92793); assay: Biochemical assay for CREBBP (1084-1701), SAMDI; settings: read-out: CREBBP Biochemistry IC50
T1 construct: measured in the following biochemical assay using CREBBP (1084-1701); purchased
Procedure, shortened: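 Acetyltransferase activity measured by SAMDI mass spectrometry after capture on biochip. Enzyme sat with compound 30 min at RT before acetyl-CoA and biotinylated H3 11-25 (K14R, K23R) peptide were added for 30 min at RT. Formic acid quench, bicarbonate neutralisation; IC50 values reported.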

647V cells = assay: High throughput proliferation (HTP) assay; assay type: cell-based; settings: Homo sapiens, 647-V, read-out: CREBBP HTP IC50
Procedure, shortened: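 Proliferation IC50 (micromolar) derived from a 7-day CellTiter-Glo viable-cell readout in 647V cells exposed, in triplicate, to rising compound concentrations; cells grown in DMEM plus 15% heat-inactivated FBS at 37° C under 5% CO2.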

EP300 (P300(1048-1664)) = target: T2, EP300 (P300(1048-1664)) (Homo sapiens, UniProt Q09472); assay: Biochemical assay for EP300, SAMDI; settings: read-out: EP300 Biochemistry IC50
T2 construct: P300(1048-1664)
T2 sequence (Q09472 1048-1664): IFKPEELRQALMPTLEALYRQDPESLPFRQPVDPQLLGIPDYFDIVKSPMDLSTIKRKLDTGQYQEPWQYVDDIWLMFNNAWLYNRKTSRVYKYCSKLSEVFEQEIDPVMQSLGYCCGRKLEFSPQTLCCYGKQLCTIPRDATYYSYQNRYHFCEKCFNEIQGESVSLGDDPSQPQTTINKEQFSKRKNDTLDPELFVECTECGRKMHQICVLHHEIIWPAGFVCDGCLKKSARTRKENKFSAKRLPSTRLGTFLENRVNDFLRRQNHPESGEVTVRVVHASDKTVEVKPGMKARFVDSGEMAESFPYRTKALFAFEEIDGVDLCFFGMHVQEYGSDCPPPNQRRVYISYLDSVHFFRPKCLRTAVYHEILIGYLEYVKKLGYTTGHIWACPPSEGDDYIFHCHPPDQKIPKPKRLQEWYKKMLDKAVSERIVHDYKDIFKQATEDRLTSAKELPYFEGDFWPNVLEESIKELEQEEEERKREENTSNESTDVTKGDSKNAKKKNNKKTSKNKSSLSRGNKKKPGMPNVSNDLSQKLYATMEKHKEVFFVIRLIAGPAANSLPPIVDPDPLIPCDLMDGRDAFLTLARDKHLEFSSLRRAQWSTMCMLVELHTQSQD
Text: The following example describes materials and methods relating to a biochemical assay for EP300. IC50 values (micromolar (μM)) are summarized in Table 1, Table 2, and Table 3 under the column labeled: “EP300 Biochemistry IC50 (micromolar).”

[2] = H3K18Ac in-cell western, HB-CLS-2 cells
[3] = high throughput proliferation, 647V cells
[4] = 2 h, H3K18Ac in HB-CLS-2 cells, 2 hrs compound incubation
[5] = Peptide #233, Acetyl-CoA, SAMDI mass spectrometry
[6] = 168 h, 647V cells, day 7, CellTiter-Glo
[7] = P300(1048-1664), Peptide #233, Ac-CoA, SAMDI mass spectrometry

T1 sequence (Q92793 1084-1701): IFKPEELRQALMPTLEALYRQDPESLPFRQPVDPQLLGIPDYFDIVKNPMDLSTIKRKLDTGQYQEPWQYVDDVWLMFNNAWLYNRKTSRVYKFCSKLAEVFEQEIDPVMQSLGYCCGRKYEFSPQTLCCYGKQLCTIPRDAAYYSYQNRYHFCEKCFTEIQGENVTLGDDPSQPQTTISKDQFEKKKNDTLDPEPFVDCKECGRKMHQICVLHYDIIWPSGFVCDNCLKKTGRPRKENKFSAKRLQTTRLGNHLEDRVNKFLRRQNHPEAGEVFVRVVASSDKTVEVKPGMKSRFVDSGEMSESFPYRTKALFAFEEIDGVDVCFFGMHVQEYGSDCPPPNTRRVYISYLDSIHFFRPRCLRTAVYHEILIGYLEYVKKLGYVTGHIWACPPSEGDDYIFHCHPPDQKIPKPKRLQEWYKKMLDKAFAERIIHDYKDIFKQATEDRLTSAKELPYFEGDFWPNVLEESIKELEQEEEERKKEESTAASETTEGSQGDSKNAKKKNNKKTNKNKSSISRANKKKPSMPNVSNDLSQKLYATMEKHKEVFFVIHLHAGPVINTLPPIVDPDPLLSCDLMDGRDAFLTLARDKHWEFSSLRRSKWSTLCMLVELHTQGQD

Row | SMILES | IC50 ([1]; H3K18Ac in-cell western) [nM] | IC50 (CREBBP (1084-1701); SAMDI) [nM] | IC50 (EP300 (P300(1048-1664)); EP300, SAMDI) [nM] | IC50 [1, 2] [nM] | IC50 [1, 4] [nM] | IC50 (CREBBP (1084-1701); [5]) [nM] | IC50 (EP300 (P300(1048-1664)); [7]) [nM] | IC50 (647V cells; high throughput proliferation) [nM] | IC50 (647V cells; [3]) [nM] | IC50 (647V cells; [6]) [nM]
1 | CCn1ncc(CN(C)C(=O)c2nc(-c3cc(C(=O)NC4CCN(C)CC4)nn3C)nc3ccc(Cl)cc23)c1C [Compound 160] | 11000 | 32000 | 20000 |  |  |  |  | 5100 |  | 
2 | CCn1ncc(CN(C)C(=O)c2nc(-c3cc(C#N)cc(NCCN(C)C(=O)OC(C)(C)C)c3)nc3ccc(Cl)cc23)c1C [Compound 105] | 2400 | 3300 | 2300 |  |  |  |  | 1800 |  | 
3 | CCc1ncc(CN(C)C(=O)c2cc(-c3ccc(NCC(O)CN(C)C)c(C)n3)nc3ccc(Cl)cc23)n1C (stereo not shown) [Compound 588] | 73.3 | 28.6 | 8.9 |  |  |  |  | 27.9 |  | 
4 | CCn1ncc(CN(C)C(=O)c2nc(-c3cc(-c4ncon4)n(C)n3)nc3ccc(Cl)cc23)c1C [Compound 450] | 20000 | ≥ 50000 | 24600 |  |  |  |  | 20000 |  | 
5 | CCn1ncc(CN(C)C(=O)c2nc(-c3cc(C(F)(F)F)c4[nH]nc(N)c4c3)nc3ccc(Cl)cc23)c1C [Compound 618] | 248 | 53.7 | 285 |  |  |  |  | 701 |  | 
6 | CCn1ncc(CN(C)C(=O)c2cc(-c3cc(-c4ncc[nH]4)n(C)n3)nc3ccc(COC)cc23)c1C [Compound 550] | 128 | 32.2 | 14.1 |  |  |  |  | 247 |  | 
7 | CCn1ncc(CN(C)C(=O)c2cc(-c3ccc4c[nH]nc4n3)nc3ccc(Cl)cc23)c1C [Compound 386] |  | 15 | 10 | 200 |  |  |  |  | 310 | 
8 | CCn1ncc(CN(C)C(=O)c2cc(-c3ccc(NCCNC)c(C)n3)nc3ccc(COC)cc23)c1C [Compound 432] | 155 | 39.6 | 18.6 |  |  |  |  | 106 |  | 
9 | CCn1ncc(CN(C)C(=O)c2nc(-c3cc(C(=O)NC)nn3C)nc3ccc(Cl)cc23)c1C [Compound 391] |  | 8500 | 4100 | 3200 |  |  |  |  | 3100 | 
10 | CNCCNc1ccc(-c2cc(C(=O)N(C)Cc3cnc(C(C)C)n3C)c3cc(Cl)ccc3n2)nc1C [Compound 544] | 124 | 14.6 | 6 |  |  |  |  | 42.5 |  | 
11 | CCc1ncc(CN(C)C(=O)c2cc(-c3ccc(NCCNC)c(C)n3)nc3ccc(COC)cc23)n1C [Compound 513] | 470 | 68.4 | 35 |  |  |  |  | 203 |  | 
12 | CCc1ncc(CN(C)C(=O)c2nc(-c3cc(C(=O)NC)n(C)n3)nc3ccc(C4CC4)cc23)n1C [Compound 633] |  |  |  |  | 227 | 34.3 | 14.6 |  |  | 369
13 | CCn1ncc(CN(C)C(=O)c2nc(-c3cc(C)cc(NCCN(C)C(=O)OC(C)(C)C)c3)nc3ccc(Cl)cc23)c1C [Compound 99] | 2000 | 2200 | 2600 |  |  |  |  | 2100 |  | 
14 | CCc1nn(C)c(CN(C)C(=O)c2cc(-c3ccc(NCCN(C)C)c(C)n3)nc3ccc(Cl)cc23)c1C [Compound 587] | 8020 | 14200 | 17300 |  |  |  |  | 1610 |  | 
15 | CCn1ncc(CN(C)C(=O)c2nc(-c3cnc[nH]3)nc3ccc(Cl)cc23)c1C [Compound 109] | 2500 | 3900 | 1400 |  |  |  |  | 3500 |  | 
16 | CC1CCCc2c(CN(C)C(=O)c3cc(-c4cccc(Cl)c4)nc4ccc(Cl)cc34)cnn21 (stereo not shown) [Compound 107] | 2500 | 1100 | 590 |  |  |  |  | 6200 |  | 
17 | CCn1ncc(CN(C)C(=O)c2nc(-c3cc(C)nc(NCCNC)c3)nc3ccc(COC)cc23)c1C [Compound 516] | 194 | 58.4 | 46.5 |  |  |  |  | 125 |  | 
18 | CCn1ncc(CN(C)C(=O)c2nc(-c3cc4c(NC)[nH]nc4cc3C)nc3ccc(C4CC4)cc23)c1C [Compound 614] | 32.1 | 22.9 | 8.7 |  |  |  |  | 34.6 |  | 
19 | CCc1ncc(CN(C)C(=O)c2nc(-c3cc(Cl)cc(NCCNC)c3)nc3ccc(Cl)cc23)n1C [Compound 555] | 226 | 22.8 | 7.1 |  |  |  |  | 102 |  | 
20 | CCc1ncc(CN(C)C(=O)c2nc(-c3cc(C)nc(NCCNC)c3)nc3ccc(COC)cc23)n1C [Compound 527] | 798 | 67.2 | 21.2 |  |  |  |  | 295 |  | 
21 | CCc1ncc(CN(C)C(=O)c2cc(-c3cc(C(=O)NC)n(C)n3)nc3ccc(C4CC4)cc23)n1C [Compound 636] |  |  |  |  | 65.4 | 24.8 | 5.6 |  |  | 132
22 | CCn1ncc(CN(C)C(=O)c2nc(-c3cc(C)cc(NC4CCNC4)c3)nc3ccc(COC)cc23)c1C (stereo not shown) [Compound 479] | 70.8 | 18 | 10.1 |  |  |  |  | 43.6 |  | 

Second part, led by results:

Row | IC50 ([1]; H3K18Ac in-cell western) [nM] | IC50 (CREBBP (1084-1701); SAMDI) [nM] | IC50 (EP300 (P300(1048-1664)); EP300, SAMDI) [nM] | IC50 [1, 2] [nM] | IC50 [1, 4] [nM] | IC50 (CREBBP (1084-1701); [5]) [nM] | IC50 (EP300 (P300(1048-1664)); [7]) [nM] | SMILES | IC50 (647V cells; high throughput proliferation) [nM] | IC50 (647V cells; [3]) [nM] | IC50 (647V cells; [6]) [nM]
23 | 5300 | 8300 | 7800 |  |  |  |  | CCn1ncc(CN(C)C(=O)c2nc(-c3ccc(OCCC(=O)NC)c(OC)c3)nc3ccc(Cl)cc23)c1C [Compound 137] | 4700 |  | 
24 | 880 | 100 | 610 |  |  |  |  | CCn1ncc(CN(C)C(=O)c2nc(-c3cc(C)cc(CNC)c3)nc3ccc(Cl)cc23)c1C [Compound 69] | 420 |  | 
25 | 1700 | 140 | 68 |  |  |  |  | CCn1ncc(CN(C)C(=O)c2nc(-c3ccc(OCCCN(C)C(=O)OC(C)(C)C)c(C)c3Cl)nc3ccc(Cl)cc23)c1C [Compound 93] | 1200 |  | 
26 | 570 | 130 | 280 |  |  |  |  | CCn1ncc(CN(C)C(=O)c2nc(-c3ccc(OCCCO)cc3C)nc3ccc(Cl)cc23)c1C [Compound 53] | 460 |  | 
27 | 730 | 380 | 780 |  |  |  |  | CCn1ncc(CN(C)C(=O)c2nc(-c3ccc(OCCCO)c(C)c3)nc3ccc(Cl)cc23)c1C [Compound 66] | 540 |  | 
28 | 2600 | 3200 | 4400 |  |  |  |  | CCn1ncc(CN(C)C(=O)c2nc(-c3ccc(OCCCNC)cc3)nc3ccc(Cl)cc23)c1C [Compound 110] | 1400 |  | 
29 | 270 | 150 | 330 |  |  |  |  | CCn1ncc(CN(C)C(=O)c2nc(-c3ccc(OCCO)cc3Cl)nc3ccc(Cl)cc23)c1C [Compound 32] | 150 |  | 
30 | 190 | 46 | 50 |  |  |  |  | CCn1ncc(CN(C)C(=O)c2nc(-c3ccc(OCCNC)cc3Cl)nc3ccc(Cl)cc23)c1C [Compound 23] | 82 |  | 
31 | 270 | 68 | 53 |  |  |  |  | CCn1ncc(CN(C)C(=O)c2nc(-c3ccc(OCCCNC)cc3C)nc3ccc(Cl)cc23)c1C [Compound 33] | 180 |  | 
32 | 340 | 650 | 680 |  |  |  |  | CCn1ncc(CN(C)C(=O)c2nc(-c3ccc4[nH]c(C)nc4c3)nc3ccc(Cl)cc23)c1C [Compound 39] | 250 |  | 
33 |  | 430 | 950 | 1100 |  |  |  | CCn1ncc(CN(C)C(=O)c2nc(-c3cc(C)cc(NCC(=O)NC)c3)nc3ccc(Cl)cc23)c1C [Compound 408] |  | 890 | 
34 |  | 33 | 12 | 130 |  |  |  | CCn1ncc(CN(C)C(=O)c2nc(-c3cc(NC(=O)CNC)cc(OC)c3)nc3ccc(Cl)cc23)c1C [Compound 384] |  | 100 | 

— patent US20220144812A1, “QUINOLINE DERIVATIVES AND THEIR USE FOR THE TREATMENT OF CANCER” (Epizyme, Inc., priority 2019, published 2022)
